28 molecules from ChEMBL document CHEMBL1154160, “Synthesis, antiviral activity, and stability of nucleoside analogs containing tricyclic bases” (Eur J Med Chem, 2009) can be followed below.

Series [1] concerns PBMC. The experiment in a line: Cytotoxicity against human PBMC cells. In kind it is cell-based. Particulars: pbmc.
The subject of series [2] is Human immunodeficiency virus. The experiment in a line: Antiviral activity against HIV in human PBM cells. To be noted: Human immunodeficiency virus 1, PBMC.
The subject of series [3] is Vero. The experiment in a line: Cytotoxicity against african green monkey Vero cells. Type of series: cell-based. To be noted: chlorocebus sabaeus, vero.
Series [4] deals with CCRF-CEM. Briefly: Cytotoxicity against human CEM cells. To be noted: ccrf-cem. In kind it is cell-based.
Series [5] has as its system Hepatitis C virus. The experiment in a line: Antiviral activity against HCV in human Huh7 cells by RNA replicon assay. In kind it is functional, organism-based, Hepacivirus hominis. Particulars: Huh-7. In general terms: In antiviral work, replicon cells carry a viral genome segment that copies itself.

Where only a bound is given, the exact number is not on record here.

What is called CC50 is the concentration that lowers cell viability or growth by half. For orientation: EC50 means the midpoint of the concentration-response curve. A word on the EC90: it is the concentration needed for an effect of 90%.

With `Nc1nc2c(ncn2[C@H]2CO[C@@H](CO)O2)c(=O)[nH]1`, the 50% cytotoxic concentration (CC50) in series [1], in series [3] and in series [4] was more than 100 µM throughout. The figures for the EC50 in series [2] and in series [5] were 0.51 µM and more than 10 µM, respectively. The EC90 is 2.4 µM in series [2] and more than 10 µM in series [5].
As to `COc1ccc(-c2cn3c(=O)c4ncn([C@H]5C=C[C@@H](CO)C5)c4nc3[nH]2)cc1`, the CC50 in series [1], in series [3] and in series [4] was more than 100 µM throughout. The concentration for a half-maximal effect (EC50) was 0.62 µM in series [2] and more than 10 µM in series [5]. Further, the EC90 is 4.9 µM in series [2] and more than 10 µM in series [5].
For the molecule `[N-]=[N+]=Nc1ccc(-c2cn3c(=O)c4ncn([C@H]5CO[C@@H](CO)O5)c4nc3[nH]2)cc1`, the 50% cytotoxic concentration (CC50) in series [1], in series [3] and in series [4] was more than 100 µM throughout. Moreover, the EC50 in series [2] was 2.6 µM; in series [5] it was more than 10 µM. Besides, the EC90 in series [2] was 11.4 µM; in series [5] it was more than 10 µM.
In the case of `N#Cc1ccc(-c2cn3c(=O)c4ncn([C@H]5CO[C@@H](CO)O5)c4nc3[nH]2)cc1`, the CC50 in series [1], in series [3] and in series [4] was more than 100 µM throughout. The results for the concentration for a half-maximal effect (EC50) in series [2] and in series [5] were 69.3 µM and more than 10 µM, respectively. Further, the concentration for an effect of 90% (EC90) was more than 100 µM in series [2] and more than 10 µM in series [5].
For the molecule `COc1ccc(-c2cn3c(=O)c4ncn([C@H]5C[C@H](N=[N+]=[N-])[C@@H](CO)O5)c4nc3[nH]2)cc1`, the CC50 was 56.7 µM in series [1], more than 100 µM in series [3] and 13.5 µM in series [4]. Also, the figures for the 50% effective concentration (EC50) in series [2] and in series [5] were 1.3 µM and more than 10 µM, respectively. The results for the EC90 in series [2] and in series [5] were 7 µM and more than 10 µM, respectively.
`O=c1c2ncn([C@H]3C=C[C@@H](CO)C3)c2nc2[nH]c(-c3cccs3)cn12`: the cytotoxic concentration (CC50) in series [1], in series [3] and in series [4] was more than 100 µM each time. Further, the concentration giving a half-maximal response (EC50) in series [2] was 0.64 µM; in series [5], more than 10 µM. Further, the EC90 in series [2] is 7.1 µM; in series [5], more than 10 µM.
For the molecule `CCc1cn2c(=O)c3ncn([C@H]4CO[C@@H](CO)O4)c3nc2[nH]1`, the CC50 in series [1], in series [3] and in series [4] was more than 100 µM each time. Further, the EC50 in series [2] is 31.5 µM; in series [5] it was more than 10 µM. Further, the EC90 in series [2] is more than 100 µM; in series [5], more than 10 µM.
Take `Cc1ccc(-c2cn3c(=O)c4ncn([C@H]5C=C[C@@H](CO)C5)c4nc3[nH]2)cc1`: the CC50 in series [1], in series [3] and in series [4] was more than 100 µM in each case. The concentration giving a half-maximal response (EC50) in series [2] is 5 µM; in series [5], more than 10 µM. Besides, the EC90 was 30.1 µM in series [2] and more than 10 µM in series [5].
Consider `O=c1c2ncn([C@H]3CO[C@@H](CO)O3)c2nc2[nH]c(-c3cccs3)cn12`, for which the CC50 in series [1], in series [3] and in series [4] was more than 100 µM in each case. The EC50 was 3 µM in series [2] and more than 10 µM in series [5]. Moreover, the values for the EC90 in series [2] and in series [5] were 16 µM and more than 10 µM, respectively.
Consider `COc1cccc(-c2cn3c(=O)c4ncn([C@H]5CO[C@@H](CO)O5)c4nc3[nH]2)c1`, for which the 50% cytotoxic concentration (CC50) in series [1], in series [3] and in series [4] was more than 100 µM each time. In addition, the concentration for a half-maximal effect (EC50) is 20.7 µM in series [2] and more than 10 µM in series [5]. For the same molecule, the EC90 was 89.6 µM in series [2] and more than 10 µM in series [5].
Take `O=c1c2ncn([C@H]3CO[C@@H](CO)O3)c2nc2[nH]c(-c3ccsc3)cn12`: the CC50 in series [1], in series [3] and in series [4] was more than 100 µM in each case. Moreover, the half-maximal effective concentration (EC50) was 0.91 µM in series [2] and more than 10 µM in series [5]. Further, the results for the 90% effect concentration (EC90) in series [2] and in series [5] were 6.6 µM and more than 10 µM, respectively.
Turning to `C[C@@]1(O)[C@H](O)[C@@H](CO)O[C@H]1n1cnc2c(=O)n3cc(-c4cccs4)[nH]c3nc21`, the CC50 in series [1] is more than 100 µM; in series [3], 44.3 µM; in series [4] it was more than 100 µM. In addition, the EC50 in series [2] was more than 100 µM; in series [5], 6.9 µM. Besides, the results for the EC90 in series [2] and in series [5] were more than 100 µM and 25.6 µM, respectively.
In the case of `CN(C)c1ccc(-c2cn3c(=O)c4ncn([C@H]5CO[C@@H](CO)O5)c4nc3[nH]2)cc1`, the cytotoxic concentration (CC50) in series [1], in series [3] and in series [4] was more than 100 µM each time. The EC50 in series [2] was 0.61 µM; in series [5] it was more than 10 µM. The EC90 in series [2] is 1.5 µM; in series [5], more than 10 µM.
For `CCN(CC)c1ccc(-c2cn3c(=O)c4ncn([C@H]5C=C[C@@H](CO)C5)c4nc3[nH]2)cc1`, the CC50 in series [1], in series [3] and in series [4] was more than 100 µM throughout. The half-maximal effective concentration (EC50) was 0.13 µM in series [2] and more than 10 µM in series [5]. Moreover, the results for the concentration for an effect of 90% (EC90) in series [2] and in series [5] were 0.65 µM and more than 10 µM, respectively.
Regarding `CN(C)c1ccc(-c2cn3c(=O)c4ncn([C@H]5C[C@H](N=[N+]=[N-])[C@@H](CO)O5)c4nc3[nH]2)cc1`, the CC50 in series [1] was more than 100 µM; in series [3], more than 100 µM; in series [4] it was 74.6 µM. The values for the 50% effective concentration (EC50) in series [2] and in series [5] were 0.14 µM and more than 10 µM, respectively. Moreover, the EC90 in series [2] is 0.54 µM; in series [5], more than 10 µM.
On to `O=c1c2ncn([C@H]3C=C[C@@H](CO)C3)c2nc2[nH]c(-c3ccsc3)cn12`, for which the cytotoxic concentration (CC50) in series [1], in series [3] and in series [4] was more than 100 µM throughout. The EC50 in series [2] was 2.6 µM; in series [5] it was more than 10 µM. Further, the 90% effect concentration (EC90) was 15.5 µM in series [2] and more than 10 µM in series [5].
With `O=c1c2ncn([C@H]3CO[C@@H](CO)O3)c2nc2[nH]c(-c3ccc(F)cc3)cn12`, the CC50 in series [1], in series [3] and in series [4] was more than 100 µM each time. Moreover, the results for the EC50 in series [2] and in series [5] were 43.5 µM and more than 10 µM, respectively. Further, the results for the concentration for an effect of 90% (EC90) in series [2] and in series [5] were more than 100 µM and more than 10 µM, respectively.
As to `O=c1c2ncn([C@H]3C=C[C@@H](CO)C3)c2nc2[nH]c(-c3ccc(Br)cc3)cn12`, the CC50 in series [1], in series [3] and in series [4] was more than 100 µM throughout. In addition, the EC50 is 12.3 µM in series [2] and more than 10 µM in series [5]. Also, the EC90 was 43.2 µM in series [2] and more than 10 µM in series [5].
As for `CN(C)c1ccc(-c2cn3c(=O)c4ncn([C@H]5C=C[C@@H](CO)C5)c4nc3[nH]2)cc1`, the values for the CC50 in series [1], in series [3] and in series [4] were 24 µM, more than 100 µM and more than 100 µM, respectively. Also, the EC50 was 0.11 µM in series [2] and more than 10 µM in series [5]. Besides, the 90% effect concentration (EC90) in series [2] is 0.47 µM; in series [5], more than 10 µM.
With `Cc1ccc(-c2cn3c(=O)c4ncn([C@H]5CO[C@@H](CO)O5)c4nc3[nH]2)cc1`, the half-maximal cytotoxic concentration (CC50) in series [1], in series [3] and in series [4] was more than 100 µM each time. Also, the EC50 in series [2] was 4.9 µM; in series [5], more than 10 µM. For the same molecule, the concentration for an effect of 90% (EC90) in series [2] is 23.9 µM; in series [5], more than 10 µM.
As for `[N-]=[N+]=N[C@H]1C[C@H](n2cnc3c(=O)n4cc(-c5ccccc5)[nH]c4nc32)O[C@@H]1CO`, the figures for the CC50 in series [1], in series [3] and in series [4] were 69.6 µM, more than 100 µM and 21.8 µM, respectively. The EC50 was 8.4 µM in series [2] and more than 10 µM in series [5]. Besides, the values for the EC90 in series [2] and in series [5] were 94.1 µM and more than 10 µM, respectively.
For `O=c1c2ncn([C@H]3CO[C@@H](CO)O3)c2nc2[nH]c(-c3ccc(F)cc3F)cn12`, the 50% cytotoxic concentration (CC50) in series [1], in series [3] and in series [4] was more than 100 µM in each case. The 50% effective concentration (EC50) in series [2] was 14.7 µM; in series [5], more than 10 µM. Also, the 90% effect concentration (EC90) is 51.8 µM in series [2] and more than 10 µM in series [5].
With `COc1ccc(-c2cn3c(=O)c4ncn([C@H]5CO[C@@H](CO)O5)c4nc3[nH]2)cc1`, the cytotoxic concentration (CC50) in series [1], in series [3] and in series [4] was more than 100 µM throughout. The concentration giving a half-maximal response (EC50) was 3.45 µM in series [2] and more than 10 µM in series [5]. Moreover, the concentration for an effect of 90% (EC90) in series [2] is 23.9 µM; in series [5], more than 10 µM.
`CCN(CC)c1ccc(-c2cn3c(=O)c4ncn([C@H]5CO[C@@H](CO)O5)c4nc3[nH]2)cc1`: the cytotoxic concentration (CC50) in series [1] was more than 100 µM; in series [3], 63 µM; in series [4], 80.8 µM. Further, the values for the EC50 in series [2] and in series [5] were 0.25 µM and more than 10 µM, respectively. In addition, the results for the concentration for an effect of 90% (EC90) in series [2] and in series [5] were 1.25 µM and more than 10 µM, respectively.
As to `CN(C)c1ccc(-c2cn3c(=O)c4ncn([C@@H]5O[C@H](CO)[C@@H](O)[C@@]5(C)O)c4nc3[nH]2)cc1`, the cytotoxic concentration (CC50) in series [3] and in series [4] was more than 100 µM in each case.
For the molecule `COc1ccccc1-c1cn2c(=O)c3ncn([C@H]4CO[C@@H](CO)O4)c3nc2[nH]1`, the CC50 in series [1], in series [3] and in series [4] was more than 100 µM in each case. In addition, the EC50 in series [2] is 8.5 µM; in series [5], more than 10 µM. The EC90 is 26.8 µM in series [2] and more than 10 µM in series [5].
As for `O=c1c2ncn([C@H]3CO[C@@H](CO)O3)c2nc2[nH]c(-c3ccc(Cl)cc3)cn12`, the CC50 in series [1], in series [3] and in series [4] was more than 100 µM each time. Moreover, the concentration giving a half-maximal response (EC50) in series [2] was more than 100 µM; in series [5], more than 10 µM. Also, the EC90 was more than 100 µM in series [2] and more than 10 µM in series [5].
Consider `O=c1c2ncn([C@H]3CO[C@@H](CO)O3)c2nc2[nH]c(-c3ccccc3)cn12`, for which the CC50 in series [1], in series [3] and in series [4] was more than 100 µM throughout. The EC50 in series [2] was 7.1 µM; in series [5], more than 10 µM. The results for the concentration for an effect of 90% (EC90) in series [2] and in series [5] were 43.5 µM and more than 10 µM, respectively.
